According to article PMC4482410, “A Peptide Mimetic of 5-Acetylneuraminic Acid-Galactose Binds with High Avidity to Siglecs and NKG2D” (PLoS ONE, 2015):
“Also recorded” adds a separate entry of the source. Where no end group is shown, it is not given here. The star is where a group is joined. Biotin = O=C1N[C@H]2[C@H](CS[C@H]2CCCCC(=O)*)N1

Legend:
Siglec-2 = details: ref Kelm et al. [68], cited from earlier work
Text: Most siglecs are inhibitory receptors containing an ITIM [9–12] and express full activity when a ligand is bound. As documented with Siglec-2 on B cells, a functional ligand binding site is required for tyrosine phosphorylation, recruitment of the phosphatase SHP-1, and inhibition of B cell activation.

[1] = test system: lectins that bind monosaccharides; details: Neu5Ac, Gal, GalNAc or fucose lectins; ref [29],[30]; cited from earlier work
Text: We initially identified several sequences of amino acids that bound to specific plant lectins by screening phage display libraries. Sequences were further refined by in silico modeling of docking of a peptide into the sugar binding site of the crystal structures of lectins. These studies predicted that several short peptide sequences, 5 to 8 amino acids in length, would have significant affinity to lectins chosen as analogs of cell-surface receptors. […] MAA is a mixture of M. amurensis leukoagglutinin (MAL) and M. amurensis hemagglutinin (MAH), both of which along with SNA1 bind preferentially to terminal Neu5Ac-Gal- sequences on complex glycans. Binding of the peptide to several lectins specific for monosaccharides was not detected. We then assayed binding of svH1C to several siglecs, which comprise a family of cell-surface receptors that are specific for Neu5Ac-Gal/GalNAc- sequ ...

siglecs [2] = assay: solid-phase binding of biotinylated tetravalent peptides to siglecs; design: species or system human; details: biotinylated peptides 2 μM
Protocol: (§1) Isothermal microcalorimetry was performed by TA Instruments Professional Services (New Castle, DE) by titrating 10 μM NKG2D (monomer concentration) (R&D Systems, Inc., Minneapolis, MN) with 100 μM svH1C in 50 mM Tris-HCl, pH 7.5, 150 mM NaCl, 0.1 mM EDTA. Recombinant human receptors were obtained from R&D Systems as chimeric proteins. NKG2D is a type II transmembrane protein and the extracellular lectin-type domain was fused at the N-terminus with a human IgG1 Fc domain. Recombinant siglecs contained a C-terminal IgG1 Fc domain or a His6–10 tag. The lyophilized proteins were reconstituted in phosphate-buffered saline, pH 7.2 (PBS), to 100 μg/mL. The Fc-chimeric proteins were bound to protein A/G-coated wells of microtiter plates (Pierce Biotechnology). His-tagged proteins were bound in Nickel-coated plates (Pierce Biotechnology). Sufficient proteins were added to wells to saturate the binding capacity of the wells. After a wash to remove unbound receptor, wells were blocked with 1% gelatin in wash buffer. Wash buffers were either 10 mM phosphate, pH 7.2; 10 mM HEPES, pH 7.4; or 50 mM Tris-HCl, pH.7.5, each in 150 mM NaCl containing 0.05% Tween-20. Biotinylated peptides were prepared as 2 μM solutions in the wash buffer and 50 μL (100 pmoles) were added to each well and incubated at room temperature for one hour. After four washes with 350 μL buffer containing 0.05% Tween-20, each assay was incubated with 50 μL of 1 μg/mL streptavidin-peroxidase (Sigma-Aldrich, St. Louis, MO). […] Absorbance was measured at 450 nm and converted to the amount of streptavidin-peroxidase bound with the specific activity of the conjugate determined under the conditions of the assay. […]
MAA is a mixture of M. amurensis leukoagglutinin (MAL) and M. amurensis hemagglutinin (MAH), both of which along with SNA1 bind preferentially to terminal Neu5Ac-Gal- sequences on complex glycans. Binding of the peptide to several lectins specific for monosaccharides was not detected. […]

CD45 (Homo sapiens) = CD45 (Homo sapiens) (UniProt P08575); details: cited from earlier work
plant lectins = details: ref [29]; cited from earlier work
Text: NKG2D is a homodimeric, type II receptor whose recognized ligands are cell-surface proteins MICA and MICB, which are major histocompatibility complex class I homologs. Other polypeptide ligands include ULBP, Rae-1 and H60 [26]. Extensive studies of binding of MICA and MICB [24–26] have shown that each homodimer binds a single ligand at the interface of the subunits. Each subunit of NKG2D also contains a lectin domain that binds glycans with specificity for Neu5Ac(α2,3)Gal. […] Binding was inhibited by fet ...

siglecs [3] = assay: inhibition of binding of svH1C to siglecs; design: species or system human; details: fetuin 10 μM or 30 μM; average of single values in two assays
Protocol: as §1, with “buffer.” for “buffer. Wash buffers were either 10 mM phosphate, pH 7.2; 10 mM HEPES, pH 7.4; or 50 mM Tris-HCl, pH.7.5, each in 150 mM NaCl containing 0.05% Tween-20. Biotinylated peptides were prepared as 2 μM solutions in the wash buffer and 50 μL (100 pmoles) were added to each well and incubated at room temperature for one hour. After four washes with 350 μL buffer containing 0.05% Tween-20, each assay was incubated with 50 μL of 1 μg/mL streptavidin-peroxidase (Sigma-Aldrich, St. Louis, MO).”
Fig 3 Binding of svH1C to lectin-type receptors. […] SEM was determined for six assays from four independent experiments. […]

NKG2D [4] = target: T1, NKG2D (Homo sapiens, UniProt P26718); assay: inhibition of binding of svH1C to NKG2D; details: added with 2 μM svH1C; PBS/0.05% Tween-20; average of single values from three separate assays; fetuin 5, 10, 30 μM; sialyllactose 12, 20, 40 μM
T1 construct: the extracellular lectin-type domain was fused at the N-terminus with a human IgG1 Fc domain; purchased R&D Systems, Inc., Minneapolis, MN
T1 sequence (P26718 73-216 limits assumed): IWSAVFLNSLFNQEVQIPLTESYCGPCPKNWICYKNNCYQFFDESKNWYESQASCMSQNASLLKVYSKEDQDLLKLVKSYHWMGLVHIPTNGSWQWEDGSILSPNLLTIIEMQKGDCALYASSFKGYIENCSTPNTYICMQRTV
Protocol: as §1, with “buffer.” for “buffer. Wash buffers were either 10 mM phosphate, pH 7.2; 10 mM HEPES, pH 7.4; or 50 mM Tris-HCl, pH.7.5, each in 150 mM NaCl containing 0.05% Tween-20. Biotinylated peptides were prepared as 2 μM solutions in the wash buffer and 50 μL (100 pmoles) were added to each well and incubated at room temperature for one hour. After four washes with 350 μL buffer containing 0.05% Tween-20, each assay was incubated with 50 μL of 1 μg/mL streptavidin-peroxidase (Sigma-Aldrich, St. Louis, MO).”
Fig 4 Binding of svH1C to NKG2D. (A) The amount of bound peptide was measured after extensive washing with PBS containing 0.05% Tween-20. […]

[5] = target: T2, recombinant human NKG2D, Fc chimera (human, UniProt P26718 73-216); assay: ELISA; inhibition: fetuin (5, 10 or 30 μM) added along with 2 μM biotinylated svH1C to immobilised receptor; PBS with 0.05% Tween-20
T2 construct: NKG2D, human, extracellular lectin-type domain; Type II transmembrane protein; source: bought: R&D Systems; not shown: Fc (human IgG1), N-terminal, kept
T2 sequence (looked up): T1 sequence (P26718 73-216 limits assumed)

NKG2D [6] = details: approximately; ref [24]–[26]; cited from earlier work
Protocol: NKG2D lacks a signaling motif in its cytoplasmic domain and functions as an activating receptor in association with adaptor proteins, DAP10 and DAP12 [75]. In addition to NKG2D, NK cells express other activating cytotoxicity receptors such as NKp30, NKp44 and NKp46. These receptors bind to tandemly multivalent heparan sulfate/heparin sequences with KD values of 0.3 to 2 μM [76]. Similarly to NKG2D, NKp46 also binds multivalent sialyl-Lewis^X with a KD of approximately 0.6 μM [77]. The native in vivo ligands for NKG2D are divergent proteins, MIC-A/B, ULBP, Rae-1 or H60, which bind the rec ...

CD45 (Homo sapiens), sequence (P08575 26-577): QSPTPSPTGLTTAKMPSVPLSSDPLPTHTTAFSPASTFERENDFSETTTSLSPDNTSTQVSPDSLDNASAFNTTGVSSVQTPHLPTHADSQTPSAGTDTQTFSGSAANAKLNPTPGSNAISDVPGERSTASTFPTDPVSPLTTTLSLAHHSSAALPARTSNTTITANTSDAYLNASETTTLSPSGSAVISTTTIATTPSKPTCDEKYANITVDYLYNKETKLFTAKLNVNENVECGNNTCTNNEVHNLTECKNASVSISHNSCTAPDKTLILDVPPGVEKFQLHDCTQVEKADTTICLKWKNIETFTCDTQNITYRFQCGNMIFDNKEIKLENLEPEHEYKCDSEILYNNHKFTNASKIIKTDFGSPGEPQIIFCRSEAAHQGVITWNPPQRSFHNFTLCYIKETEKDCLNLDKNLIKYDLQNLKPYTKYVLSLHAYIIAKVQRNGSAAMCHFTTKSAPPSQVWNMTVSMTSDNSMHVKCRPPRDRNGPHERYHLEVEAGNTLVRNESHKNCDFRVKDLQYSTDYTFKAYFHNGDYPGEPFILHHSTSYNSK

## CO[C@]1(C(=O)O)C[C@H](O)[C@@H](NC(C)=O)[C@H]([C@H](O)[C@H](O)CNC(=O)c2ccc(-c3ccccc3)cc2)O1 [BPC-Neu5Ac]
Siglec-2; after cells were treated with neuraminidase
  IC50: 4 µM
Siglec-2
  tyrosine phosphorylation and inhibitory activity of Siglec-2: reduced tyrosine phosphorylation and attenuated the receptor’s inhibitory activity

## HPSLK [sv6B]
[1]
  avidity to lectins that bind monosaccharides, relative to natural ligands: several orders of magnitude greater than their natural ligands
Siglecs [2]
  binding of biotinylated tetravalent peptides to siglecs: also bound to siglecs

## Siglec-2 (CD22) (from UniProt P20273)
CD45 (Homo sapiens)
  Kd: 117 µM

## [(VGGGSGGGS)2K]2K-ε-biotinyl-K-NH2 [peptide used as a negative control, reference compound]
Siglecs [2]
  binding of biotinylated tetravalent peptides to siglecs: no binding

## digestion of fetuin with neuraminidase: fetuin digested with neuraminidase
Plant lectins
  competition with svH1C for binding to plant lectins: nearly eliminated its ability to inhibit binding

## fetuin: fetal bovine fetuin (purity, 88%; cat. no. 341506, Calbiochem)
Plant lectins
  competition with svH1C for binding to plant lectins: effectively competed
Siglecs [3]
  inhibition of binding of svH1C to siglecs by fetuin: inhibited; also recorded: as effective an inhibitor of binding of svH1C to NKG2D as it was of the binding of the peptide to siglecs

## sialyllactose [reference compound]
NKG2D [4]
  IC50: ~18 µM

B1: svH1C, biotin-tagged tetravalent peptide [(…)2K]2K-ε-biotinyl-K-NH2 (peptide)
chain 1: NPSHPLSGGGGS
chain 2: KKKK(Biotin)-NH2
modifications: also: tetravalent branched: four NPSHPLSGGGGS arms on tri-lysine core joined by peptide and iso-peptide bonds
[5]
  binding constant estimated from the inhibition by fetuin: 1 µM
  streptavidin-peroxidase conjugate bound (average 100% value, without inhibitor): 2.4 ng

B2: MIC-A/B: native in vivo ligands for NKG2D; major histocompatibility complex class I homologs (protein, UniProt Q29983 24-383; Q29980 23-383, looked up)
MHC class I … 1: EPHSLRYNLTVLSWDGSVQSGFLTEVHLDGQPFLRCDRQKCRAKPQGQWAEDVLGNKTWDRETRDLTGNGKDLRMTLAHIKDQKEGLHSLQEIRVCEIHEDNSTRSSQHFYYDGELFLSQNLETKEWTMPQSSRAQTLAMNVRNFLKEDAMKTKTHYHAMHADCLQELRRYLKSGVVLRRTVPPMVNVTRSEASEGNITVTCRASGFYPWNITLSWRQDGVSLSHDTQQWGDVLPDGNGTYQTWVATRICQGEEQRFTCYMEHSGNHSTHPVPSGKVLVLQSHWQTFHVSAVAAAAIFVIIIFYVRCCKKKTSAAEGPELVSLQVLDQHPVGTSDHRDATQLGFQPLMSDLGSTGSTEGA
MHC class I … 2: AEPHSLRYNLMVLSQDGSVQSGFLAEGHLDGQPFLRYDRQKRRAKPQGQWAENVLGAKTWDTETEDLTENGQDLRRTLTHIKDQKGGLHSLQEIRVCEIHEDSSTRGSRHFYYDGELFLSQNLETQESTVPQSSRAQTLAMNVTNFWKEDAMKTKTHYRAMQADCLQKLQRYLKSGVAIRRTVPPMVNVTCSEVSEGNITVTCRASSFYPRNITLTWRQDGVSLSHNTQQWGDVLPDGNGTYQTWVATRIRQGEEQRFTCYMEHSGNHGTHPVPSGKALVLQSQRTDFPYVSAAMPCFVIIIILCVPCCKKKTSAAEGPELVSLQVLDQHPVGTGDHRDAAQLGFQPLMSATGSTGSTEGT
NKG2D [6]
  Kd: ~1 µM

B3: fetal bovine fetuin (natural protein, UniProt P12763 19-359, looked up)
chain: IPLDPVAGYKEPACDDPDTEQAALAAVDYINKHLPRGYKHTLNQIDSVKVWPRRPTGEVYDIEIDTLETTCHVLDPTPLANCSVRQQTQHAVEGDCDIHVLKQDGQFSVLFTKCDSSPDSAEDVRKLCPDCPLLAPLNDSRVVHAVEVALATFNAESNGSYLQLVEISRAQFVPLPVSVSVEFAVAATDCIAKEVVDPTKCNLLAEKQYGFCKGSVIQKALGGEDVRVTCTLFQTQPVIPQPQPDGAEAEAPSAVPDAAGPTPSAAGPPVASVVVGPSVVAVPLPLHRAHYDLRHTFSGVASVESSSGEAFHVGKTPIVGQPSIPGGPVRLCPGRIRYFKI
modifications: three N-linked and three O-linked glycans per molecule, with termini Neu5Ac(α2,3)Gal or Neu5Ac(α2,6)Gal
notes: fetuin, fetal bovine; source: bought: Calbiochem, EMD Chemicals (purity, 88%)
[5]; both partners purified
  IC50: ~3 µM
